Values joined by “and” are separate entries in the source; they are usually repeats but may differ in a detail not shown here. Equal entries are not always repeated.
Key:
[1] = target: T1, CaR (Homo sapiens, UniProt P41180); experiment: Cytosolic calcium changes in purified monocytes (Indo-1/AM, flow cytometry); type: cell-based
T1 construct: endogenous in cells; host or cells: peripheral blood CD14+ monocytes, sorted by FACS
T1 sequence (P41180 20-1078): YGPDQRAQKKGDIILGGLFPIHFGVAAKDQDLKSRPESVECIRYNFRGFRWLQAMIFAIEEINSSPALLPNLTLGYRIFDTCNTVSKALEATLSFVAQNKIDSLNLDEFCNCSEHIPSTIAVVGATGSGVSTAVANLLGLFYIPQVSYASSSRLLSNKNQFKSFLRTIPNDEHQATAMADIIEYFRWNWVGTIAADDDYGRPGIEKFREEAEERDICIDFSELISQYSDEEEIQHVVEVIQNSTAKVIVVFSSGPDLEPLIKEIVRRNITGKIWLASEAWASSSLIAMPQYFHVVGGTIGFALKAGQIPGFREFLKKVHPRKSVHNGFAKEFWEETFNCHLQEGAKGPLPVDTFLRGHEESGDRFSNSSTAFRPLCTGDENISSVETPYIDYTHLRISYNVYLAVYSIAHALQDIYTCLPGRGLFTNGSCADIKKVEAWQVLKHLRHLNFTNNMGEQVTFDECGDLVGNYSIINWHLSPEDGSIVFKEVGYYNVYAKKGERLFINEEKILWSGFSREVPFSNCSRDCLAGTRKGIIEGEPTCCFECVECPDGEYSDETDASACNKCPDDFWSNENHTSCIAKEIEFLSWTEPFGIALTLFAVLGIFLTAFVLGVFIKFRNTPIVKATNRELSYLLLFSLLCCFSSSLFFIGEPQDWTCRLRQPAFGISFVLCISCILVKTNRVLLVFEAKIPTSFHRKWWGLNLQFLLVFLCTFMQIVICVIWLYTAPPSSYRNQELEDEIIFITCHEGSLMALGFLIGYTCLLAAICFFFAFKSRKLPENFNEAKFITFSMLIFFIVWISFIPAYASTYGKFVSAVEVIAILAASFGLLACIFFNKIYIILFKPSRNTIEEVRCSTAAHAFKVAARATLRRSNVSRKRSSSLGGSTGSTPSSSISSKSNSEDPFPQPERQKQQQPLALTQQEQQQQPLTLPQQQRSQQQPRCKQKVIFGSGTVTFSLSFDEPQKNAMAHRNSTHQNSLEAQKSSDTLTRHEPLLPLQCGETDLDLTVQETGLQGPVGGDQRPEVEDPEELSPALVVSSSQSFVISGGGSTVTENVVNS
Description: Preparation of peripheral blood CD14^+ monocytes. Low density cells were isolated from human and mouse peripheral blood using Ficoll-Hypaque (Pharmacia, Piscataway, N.J.). CD14^+ monocytes were purified by sorting on FACSVantage (Becton Dickinson, San Jose, Calif.) based on CD14 expression. Purified cells were incubated in either calcium-free medium (Hanks' Balanced Salt Solution 1×, CellGro, Hermdon. VA) or Iscove's Medium 1×(Mod) (CellGro, Herndon, Va.) which contains 1.5 mM Ca++. […] Cells were incubated for up to 24 hours in 5% CO2 humidified air. Monocytes were then detached from the plate using a cell scraper. All calcium concentrations indicated in the presentation of the data represent the total Ca^++ present in the basal medium plus any added Ca^++.
Cytosolic calcium changes. Purified monocytes were loaded with Indo-1/AM (Molecular Probes, Eugene, Oreg.). Cells were collected on FACSVantage for 0.30 sec to establish a baseline emission value for Indo-1/AM. […] Data acquisition then continued for up to 5 minutes.

[2] = test system: mononuclear cells derived from neonatal CaR −/−, +/− or +/+ mice; experiment: Transmigration assay with cells from CaR knockout and wild-type mice; type: cell-based, mouse; conditions: CaR −/− cells
Description: Transmigration assays. Transwells (5 μm pore size polycarbonate membrane, 12 mm diameter) (Costar, Corning, N.Y.) were used to assess cell migration using an established methodology (25). The concentration of Ca^++ in IMDM (CellGro, Herndon, Va.) in the upper and lower chambers of the transwell were adjusted according to a checkerboard analysis of chemotaxis. Calcium concentrations varied from 0 mM to 6.5 mM. Purified monocytes (1×10^4) were then placed in the top chamber with 150 μl of IMDM (CellGro, Hemdon, Va.). 500 μl of the medium was added to the bottom of the well and supplemented with varying concentrations of Ca^++ or with Ca^++ plus 10 ng/ml of MCP-1, 100 ng/ml of SDF-1α or 10 ng/ml of MIP-1α (PeproTech, Rocky Hills, N.Y.). Cells were incubated at 37° C. for 3 hours. To study inhibition of chemotaxis, cells were subsequently incubated with wortmannin (1 μM for 20 minutes at 37° C.), herbimycin (1 μM for 20 minutes at 37° C.) or genistein (1 μg/ml for 20 minutes at 37° C.), before their use in transmigration assays. At the end of the experiment, cells were then harvested from the lower chamber and counted using a hemocytometer.
CaR−/− were bred as previously described (Ho, C., et al., Nat Genet 1995, 11:389-94). To produce CaR−/− mice for this study, heterozygote mice were intercrossed. The mice studied were either 129S6/svev or 129S6/svev/Swiss Webster mixed genetic background. […]

[3] = test system: CCR-2; experiment: Chemokine receptor expression on monocytes by flow cytometry: CCR-2; type: cell-based, human
Description: Chemokine receptor expression and flow cytometric analysis.
Table 1: Exposure of CD14^+ monocytes to Ca^++ enhances CCR2 expression in a dose dependent manner. Monocytes were exposed to varying concentrations of Ca^++ and to the selective CaR activator, NPS R-467 (1 μM), or to NPS S-467 (1 μM) in the presence of 1.5 mM Ca^++. The median fluorescence intensity for CCR2 expression was measured for each Ca^++ concentration and in the presence of NPS R-467 or S-467. Mean values +/−s.e.m. from three independent experiments are shown.

[4] = test system: human CD34^+ cells; experiment: In vitro assays of human CD34^+ hematopoietic progenitor cells; type: cell-based; conditions: increased Ca^2+ concentration
Description: Calcium ions effect Hematopoietic Progenitor Cells. We also assessed the effects of calcium, through its interaction with the calcium sensing receptor (CaR) using in vitro assays of human CD34^+ cells. […] Therefore, calcium participates in maintaining candidate stem cells in a primitive, undifferentiated state. […] This was accompanied by a decrease in the level of LTC-ICs in the bone marrow, but an increase in the level of CFU-Cs, with a converse increase in hematopoietic stem cells in is the peripheral blood.

Q: For `[Ca+2].[Cl-].[Cl-]` [Ca^++, calcium chloride], which “Increase in cytosolic calcium” value ([1]; 4.5 mM Ca^++) is on record?
A: The value was “Sustained increases”.

Q: And the “Extracellular Ca^++ concentration giving maximal cytosolic Ca^++ response” value ([1]; monocytes, dose dependent)?
A: Its value is 4.5 mM.

Q: What about the “Transmigration to the Ca^++ gradient” value [2] of the same molecule?
A: The value was “failed to transmigrate”.

Q: What about the “Cell surface CCR-2 expression” value [3] of the same molecule?
A: The value was “up-modulation”.

Q: And the “Mean fluorescent intensity -CCR-2 Mean +/− s.e.m.” value [3]?
A: Its value is 278 +/− 39 and 296 +/− 35 and 307 +/− 35.

Q: What about the “Number of more mature BFU-Es” value ([4]; p=0.017) of the same molecule?
A: Its value is “decrease”.

Q: What about the “Level of primitive cells measured by LTC-ICs” value ([4]; p=0.037) of the same molecule?
A: Its value is “increase”.
